Assay results: BigSolDB 2.1

Conditions: in n-octanol

solubility (mole fraction) (293.15 K) | solubility (mole fraction) (298.15 K) | solubility (mole fraction) (303.15 K) | solubility (mole fraction) (308.15 K) | solubility (mole fraction) (313.15 K) | solubility (mole fraction) (318.15 K) | solubility (mole fraction) (323.15 K) | solubility (mole fraction) (328.15 K) | solubility (mole fraction) (333.15 K) | Structure (SMILES)
2.17e-06 | 2.76e-06 | 3.55e-06 | 4.58e-06 | 5.88e-06 | 7.63e-06 | 9.91e-06 | 1.3e-05 | 1.68e-05 | CCn1cc(C(=O)O)c(=O)c2cc(F)c(N3CCNC(C)C3)c(F)c21 (configuration not stated)
5.17e-05 | 6.62e-05 | 8.54e-05 | 0.000108 | 0.00014 | 0.000177 | 0.000224 | 0.000284 | 0.000352 | CCn1cc(C(=O)O)c(=O)c2cc(F)c(N3CCNCC3)cc21
9.14e-07 | 1.2e-06 | 1.57e-06 | 2.03e-06 | 2.6e-06 | 3.25e-06 | 4.05e-06 | 4.97e-06 | 6.02e-06 | CCn1cc(C(=O)O)c(=O)c2cnc(N3CCNCC3)nc21
